Measurements as given in ChEMBL document CHEMBL1147331, “Cytotoxic and antimalarial bisbenzylisoquinoline alkaloids from Stephania erecta” (J Nat Prod, 1993).
≈ marks a conversion by molar mass, not a printed value.

Key:
Plasmodium falciparum [1] = assay: Antimalarial activity after 24 hrs against chloroquine-sensitive Plasmodium falciparum D6 infected type A+ human erythrocytes by [3H]hypoxanthine uptake; type: functional; settings: read-out: ED50 (the source's name)
Plasmodium falciparum [2] = assay: Antimalarial activity after 24 hrs against chloroquine-resistant Plasmodium falciparum W2 infected type A+ human erythrocytes by [3H]hypoxanthine uptake; type: functional; settings: read-out: ED50 (the source's name)
[3] = Cytotoxicity against human BCA1 cells after 3 days by sulforhodamine B assay; type: cell-based; settings: read-out: ED50
[4] = Cytotoxicity against human HT1080 cells after 3 days by sulforhodamine B assay; type: cell-based, HT-1080; settings: read-out: ED50
[5] = Cytotoxicity against human LUC1 cells after 3 days by sulforhodamine B assay; type: cell-based; settings: read-out: ED50
[6] = Cytotoxicity against human SK-MEL-2 cells after 3 days by sulforhodamine B assay; type: cell-based; settings: read-out: ED50
[7] = Cytotoxicity against human Col1 cells after 3 days by sulforhodamine B assay; type: cell-based; settings: read-out: ED50
[8] = Cytotoxicity against human KB cells after 3 days by sulforhodamine B assay; type: cell-based; settings: read-out: ED50
[9] = Cytotoxicity against human KBV1 cells after 3 days by sulforhodamine B assay; type: cell-based, KB-V1; settings: read-out: ED50
[10] = Cytotoxicity against mouse P388 cells after 2 days by sulforhodamine B assay; type: cell-based; settings: read-out: ED50
[11] = Cytotoxicity against human A431 cells after 3 days by sulforhodamine B assay; type: cell-based, A-431; settings: read-out: ED50
[12] = Cytotoxicity against human LNCAP cells after 3 days by sulforhodamine B assay; type: cell-based; settings: read-out: ED50
[13] = Cytotoxicity against human ZR-75-1 cells after 3 days by sulforhodamine B assay; type: cell-based; settings: read-out: ED50
[14] = Selectivity index, ratio of ED50 for human BCA1 cells to ED50 for chloroquine-sensitive Plasmodium falciparum D6; type: toxicity, cell-based; settings: read-out: Ratio ED50
[15] = Selectivity index, ratio of ED50 for human BCA1 cells to ED50 for chloroquine-resistant Plasmodium falciparum W2; type: toxicity, cell-based; settings: read-out: Ratio ED50
[16] = Selectivity index, ratio of ED50 for human HT1080 cells to ED50 for chloroquine-sensitive Plasmodium falciparum D6; type: toxicity, cell-based, HT-1080; settings: read-out: Ratio ED50
[17] = Selectivity index, ratio of ED50 for human HT1080 cells to ED50 for chloroquine-resistant Plasmodium falciparum W2; type: toxicity, cell-based, HT-1080; settings: read-out: Ratio ED50
[18] = Selectivity index, ratio of ED50 for human LUC1 cells to ED50 for chloroquine-sensitive Plasmodium falciparum D6; type: toxicity, cell-based; settings: read-out: Ratio ED50
[19] = Selectivity index, ratio of ED50 for human LUC1 cells to ED50 for chloroquine-resistant Plasmodium falciparum W2; type: toxicity, cell-based; settings: read-out: Ratio ED50
[20] = Selectivity index, ratio of ED50 for human MEL2 cells to ED50 for chloroquine-sensitive Plasmodium falciparum D6; type: toxicity, cell-based; settings: read-out: Ratio ED50
[21] = Selectivity index, ratio of ED50 for human MEL2 cells to ED50 for chloroquine-resistant Plasmodium falciparum W2; type: toxicity, cell-based; settings: read-out: Ratio ED50
[22] = Selectivity index, ratio of ED50 for human COL1 cells to ED50 for chloroquine-sensitive Plasmodium falciparum D6; type: toxicity, cell-based; settings: read-out: Ratio ED50
[23] = Selectivity index, ratio of ED50 for human COL1 cells to ED50 for chloroquine-resistant Plasmodium falciparum W2; type: toxicity, cell-based; settings: read-out: Ratio ED50
[24] = Selectivity index, ratio of ED50 for human KB cells to ED50 for chloroquine-sensitive Plasmodium falciparum D6; type: toxicity, cell-based; settings: read-out: Ratio ED50
[25] = Selectivity index, ratio of ED50 for human KB cells to ED50 for chloroquine-resistant Plasmodium falciparum W2; type: toxicity, cell-based; settings: read-out: Ratio ED50
[26] = Selectivity index, ratio of ED50 for human KB-V1 cells to ED50 for chloroquine-sensitive Plasmodium falciparum D6; type: toxicity, cell-based; settings: read-out: Ratio ED50
[27] = Selectivity index, ratio of ED50 for human KB-V1 cells to ED50 for chloroquine-resistant Plasmodium falciparum W2; type: toxicity, cell-based; settings: read-out: Ratio ED50
[28] = Selectivity index, ratio of ED50 for human LNCaP cells to ED50 for chloroquine-sensitive Plasmodium falciparum D6; type: toxicity, cell-based; settings: read-out: Ratio ED50
[29] = Selectivity index, ratio of ED50 for human LNCaP cells to ED50 for chloroquine-resistant Plasmodium falciparum W2; type: toxicity, cell-based; settings: read-out: Ratio ED50
[30] = Selectivity index, ratio of ED50 for human ZR-75-1 cells to ED50 for chloroquine-sensitive Plasmodium falciparum D6; type: toxicity, cell-based; settings: read-out: Ratio ED50
[31] = Selectivity index, ratio of ED50 for human ZR-75-1 cells to ED50 for chloroquine-resistant Plasmodium falciparum W2; type: toxicity, cell-based; settings: read-out: Ratio ED50
in vitro [32] = settings: mouse, P388 cells
Description: Selectivity index, ratio of ED50 for mice (Mus musculus) P388 cells to ED50 for chloroquine-sensitive Plasmodium falciparum D6

in vitro [33] = settings: mouse, P388 cells; remark: listed apart in the source
Description: Selectivity index, ratio of ED50 for mice (Mus musculus) P388 cells to ED50 for chloroquine-resistant Plasmodium falciparum W2

in vitro [34] = settings: human, A431 cells
Description: Selectivity index, ratio of ED50 for human A431 cells to ED50 for chloroquine-sensitive Plasmodium falciparum D6

in vitro [35] = settings: human, A431 cells; remark: listed apart in the source
Description: Selectivity index, ratio of ED50 for human A431 cells to ED50 for chloroquine-resistant Plasmodium falciparum W2

SMILES	EC50 (Plasmodium falciparum [1]) [µg/mL]	EC50 (Plasmodium falciparum [2]) [µg/mL]	CC50 at 72 h [3] [µg/mL]	CC50 at 72 h [4] [µg/mL]	CC50 at 72 h [5] [µg/mL]	CC50 at 72 h [6] [µg/mL]	CC50 at 72 h [7] [µg/mL]	CC50 at 72 h [8] [µg/mL]	CC50 at 72 h [9] [µg/mL]	CC50 at 48 h [10] [µg/mL]	CC50 at 72 h [11] [µg/mL]	CC50 at 72 h [12] [µg/mL]	CC50 at 72 h [13] [µg/mL]	selectivity ratio [14]	selectivity ratio [15]	selectivity ratio [16]	selectivity ratio [17]	selectivity ratio [18]	selectivity ratio [19]	selectivity ratio [20]	also measured
COc1ccc2cc1Oc1ccc(cc1)C[C@H]1c3c(cc(OC)c(OC)c3Oc3cc4c(cc3OC)CCN(C)[C@@H]4C2)CCN1C [OBABERINE]	0.231 (≈ 0.371 µM)	0.216 (≈ 0.347 µM)	4.6 (≈ 7.39 µM)	10.4 (≈ 16.7 µM)	9.7 (≈ 15.6 µM)	20 (≈ 32.1 µM)	10.8 (≈ 17.3 µM)	8.6 (≈ 13.8 µM)	2.6 (≈ 4.17 µM)	4.1 (≈ 6.58 µM)	8.7 (≈ 14 µM)	5 (≈ 8.03 µM)	4 (≈ 6.42 µM)	20	21	45	48	42	45	87	selectivity ratio [21]: 93; selectivity ratio [22]: 47; selectivity ratio [23]: 50; selectivity ratio [24]: 37; selectivity ratio [25]: 40; selectivity ratio [26]: 11; selectivity ratio [27]: 12; selectivity ratio [28]: 22; selectivity ratio [29]: 23; selectivity ratio [30]: 17; selectivity ratio [31]: 19; selectivity ratio (in vitro [32]): 18; selectivity ratio (in vitro [33]): 19; selectivity ratio (in vitro [34]): 38; selectivity ratio (in vitro [35]): 40
COc1ccc2cc1Oc1ccc(cc1)C[C@H]1c3c(cc(OC)c(OC)c3Oc3cc4c(cc3OC)CCN[C@@H]4C2)CCN1C	0.0459 (≈ 0.0754 µM)	0.0937 (≈ 0.154 µM)	3.2 (≈ 5.26 µM)	7.4 (≈ 12.2 µM)	8.8 (≈ 14.5 µM)	14.5 (≈ 23.8 µM)	5.5 (≈ 9.04 µM)	6 (≈ 9.86 µM)	2 (≈ 3.29 µM)	3.5 (≈ 5.75 µM)	6.1 (≈ 10 µM)	3.7 (≈ 6.08 µM)	1.9 (≈ 3.12 µM)	70	34	161	79	192	94	316	selectivity ratio [21]: 155; selectivity ratio [22]: 120; selectivity ratio [23]: 59; selectivity ratio [24]: 131; selectivity ratio [25]: 64; selectivity ratio [26]: 44; selectivity ratio [27]: 21; selectivity ratio [28]: 81; selectivity ratio [29]: 40; selectivity ratio [30]: 41; selectivity ratio [31]: 20; selectivity ratio (in vitro [32]): 76; selectivity ratio (in vitro [33]): 37; selectivity ratio (in vitro [34]): 133; selectivity ratio (in vitro [35]): 65
COc1ccc2cc1Oc1ccc(cc1)C[C@H]1c3cc(c(OC)cc3CCN1C)Oc1c(OC)c(OC)cc3c1[C@@H](C2)N(C)CC3	0.165 (≈ 0.265 µM)	0.0546 (≈ 0.0877 µM)	5.4 (≈ 8.67 µM)	11 (≈ 17.7 µM)	10 (≈ 16.1 µM)	19.5 (≈ 31.3 µM)	10.5 (≈ 16.9 µM)	6.6 (≈ 10.6 µM)	1.5 (≈ 2.41 µM)	5.6 (≈ 8.99 µM)	8.4 (≈ 13.5 µM)	9.4 (≈ 15.1 µM)	5 (≈ 8.03 µM)	33	99	67	202	61	183	118	selectivity ratio [21]: 357; selectivity ratio [22]: 64; selectivity ratio [23]: 192; selectivity ratio [24]: 40; selectivity ratio [25]: 121; selectivity ratio [26]: 9; selectivity ratio [27]: 28; selectivity ratio [28]: 57; selectivity ratio [29]: 172; selectivity ratio [30]: 30; selectivity ratio [31]: 92; selectivity ratio (in vitro [32]): 34; selectivity ratio (in vitro [33]): 103; selectivity ratio (in vitro [34]): 51; selectivity ratio (in vitro [35]): 154
